Key:
[1] = target: GDP-loaded KRAS G12D (Homo sapiens, UniProt P01116, G12D); assay: KRAS G12D Probe Displacement Assay; assay type: binding; conditions: KRAS G12D 0.5 nM, biotinylated probe 2 4 nM; read-out: KRAS G12D Probe Displacement Assay IC50
[2] = test system: pERK1/2 (THR202/TYR204) in AsPC-1 cells; assay: pERK Assay (HTRF) in AsPC-1 cells; assay type: cell-based; conditions: Homo sapiens, ASPC1, 2 h compound treatment
Description: AsPC-1 cell line was used in this study. […] 30000 cells per well were seeded into a 96-well plate and incubated overnight. […] After 2 h compound treatment, cells were lysed, and the pERK1/2 (THR202/TYR204) level in the cell lysates was detected by HTRF kit (Cisbio). In brief, a total of 16 μL of cell lysate from each well of a 96-well plate was transferred to a 384-well white assay plate. Lysate from each well was incubated with 2 μL of Eu3+-cryptate (donor) labeled anti-phospho-ERK1/2 and 2 μL of D2 (acceptor) labeled anti-phospho-ERK1/2 antibodies (Cisbio) overnight in dark at room temperature. When donor and acceptor are in close proximity, excitation of the donor with laser triggers a Fluorescence Resonance Energy Transfer (FRET) towards the acceptor, which in turn fluoresces at 655 nm wavelength. FRET signals were measured using a PHERAstar FSX reader (BMG Labtech).

[3] = target: GDP-loaded WT KRAS (Homo sapiens, UniProt P01116); assay: KRAS WT Probe Displacement Assay; assay type: binding; conditions: WT KRAS 3 nM, biotinylated probe 1 60 nM; read-out: KRAS WT Probe Displacement Assay IC50
Sequence of GDP-loaded WT KRAS (P01116 1-188 isoform P01116-2): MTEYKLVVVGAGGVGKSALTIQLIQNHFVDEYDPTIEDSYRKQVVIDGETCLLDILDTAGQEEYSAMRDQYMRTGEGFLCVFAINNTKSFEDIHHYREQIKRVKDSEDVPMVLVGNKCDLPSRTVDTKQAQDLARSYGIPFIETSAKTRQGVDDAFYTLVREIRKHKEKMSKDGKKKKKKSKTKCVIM

[4] = target: WT KRAS:SOS1 (Homo sapiens, UniProt P01116); assay: KRAS WT:SOS1 GDP TR-FRET assay; assay type: binding; conditions: GST-WT KRAS 37.5 nM, GDP 10 μM, His-SOS1 18 nM
Sequence of WT KRAS:SOS1 (P01116 1-188 isoform P01116-2): as above
Description: (§1) KRAS:SOS1 GDP TR-FRET Assay
(§2) This assay was used to identify compounds which competitively interact with the binding of KRAS protein to SOS1 in the presence of GDP. […] All protein and reaction solutions were prepared in assay buffer containing DPBS pH7.5, 0.1% BSA, and 0.05% Tween 20. Purified GST-tagged WT KRAS or KRAS G12D protein (37.5 nM final assay concentration) and GDP (Sigma, 10 μM final assay concentration) mixture, a serially diluted compound (top final concentration is 50 μM or 10 uM, 3-fold serially diluted, 10 points) and His-tagged SOS1 protein (18 nM final assay concentration) were added into the assay plates (384 well microplate, black, Corning) sequentially. Plates are incubated at 24° C. for 1 hr. Following the incubation, Mab Anti-GST-Tb cryptate (Cisbio) and […] (Cisbio) were added and further incubated at 24° C. for another 1 hr. The TR-FRET signals (ex337 nm, em665 nm/620 nm) were read on BMG PHERAstar FSX instrument. The inhibition percentage of KRAS protein binding with SOS1 in presence of increasing concentrations of compounds was calculated based on the ratio of fluorescence at 665 nm to that at 620 nm. The IC50 value of each compound was calculated from fitting the data to the four-parameter logistic model by Dotmatics.

[5] = target: KRAS G12D:SOS1 (Homo sapiens, UniProt P01116, G12D); assay: KRAS G12D:SOS1 GDP TR-FRET assay; assay type: binding; conditions: GST-KRAS G12D 37.5 nM, GDP 10 μM, His-SOS1 18 nM
Sequence of KRAS G12D:SOS1 (P01116 1-188 isoform P01116-2 G12D): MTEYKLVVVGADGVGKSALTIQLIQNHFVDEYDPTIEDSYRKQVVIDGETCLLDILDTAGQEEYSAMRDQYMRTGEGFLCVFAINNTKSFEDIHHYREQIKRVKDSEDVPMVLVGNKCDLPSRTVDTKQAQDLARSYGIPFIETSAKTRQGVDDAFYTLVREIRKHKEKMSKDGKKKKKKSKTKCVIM
Description: as §1, §2

Sequence of GDP-loaded KRAS G12D (P01116 1-188 isoform P01116-2 G12D): as above

| Structure (SMILES) | IC50 [1] [nM] | IC50 [2] [nM] | IC50 [3] [nM] | IC50 [4] [nM] | IC50 [5] [nM] |
| --- | --- | --- | --- | --- | --- |
| CCc1cc2c(N3CC4CCC(C3)N4)nc(OC[C@@]34CCCN3C[C@H](F)C4)nc2c(F)c1-c1ccc(F)c2sc(N)nc12 [Example E67, 4-(4-(3,8-diazabicyclo[3.2.1]octan-3-yl)-6-ethyl-8-fluoro-2-(((2R,7aS)-2-fluorotetrahydro-1H-pyrrolizin-7a(5H)-yl)methoxy)quinazolin-7-yl)-7-fluorobenzo[d]thiazol-2-amine] | 0.45 | 95 | 9.9 | – | – |
| Nc1nc2c(-c3c(C(F)(F)F)cc4c(N5CC6CCC(C5)N6)nc(OC[C@@]56CCCN5C[C@H](F)C6)nc4c3F)cc(F)c(F)c2s1 [Example E85, 4-(4-(3,8-diazabicyclo[3.2.1]octan-3-yl)-8-fluoro-2-(((2R,7aS)-2-fluorotetrahydro-1H-pyrrolizin-7a(5H)-yl)methoxy)-6-(trifluoromethyl)quinazolin-7-yl)-6,7-difluorobenzo[d]thiazol-2-amine] | 0.21 | 124 | 5.6 | – | – |
| CN1CCCC1(C)COc1nc(N2CC3CCC(C2)N3)c2cc(Cl)c(-c3ccc(F)c4sc(N)nc34)c(F)c2n1 (stereo not drawn) [Example E61, 4-(4-(3,8-diazabicyclo [3.2.1]octan-3-yl)-6-chloro-2-((1,2-dimethylpyrrolidin-2-yl)methoxy)-8-fluoroquinazolin-7-yl)-7-fluorobenzo[d]thiazol-2-amine] | 2.6 | 2000 | 240 | – | – |
| CN1C[C@H](F)CC1(C)COc1nc(N2CC3CCC(C2)N3)c2cc(Cl)c(-c3ccc(F)c4sc(N)nc34)c(F)c2n1 (stereo partly drawn) [Example E89, 4-(4-(3,8-diazabicyclo[3.2.1]octan-3-yl)-6-chloro-8-fluoro-2-(((4R)-4-fluoro-1,2-dimethylpyrrolidin-2-yl)methoxy)quinazolin-7-yl)-7-fluorobenzo[d]thiazol-2-amine] | 2.4 | 556 | 121 | – | – |
| Cc1c(F)c(N)nc(-c2c(Cl)cc3c(N4CC5CCC(C4)N5)nc(OC[C@@]45CCCN4C[C@H](F)C5)nc3c2F)c1C(F)(F)F [Example E78, 6-(4-(3,8-diazabicyclo[3.2.1]octan-3-yl)-6-chloro-8-fluoro-2-(((2R,7aS)-2-fluorotetrahydro-1H-pyrrolizin-7a(5H)-yl)methoxy)quinazolin-7-yl)-3-fluoro-4-methyl-5-(trifluoromethyl)pyridin-2-amine] | 0.99 | 159 | 101 | – | – |
| C=C(C)c1cc2c(N3CC4CCC(C3)N4)nc(OC[C@@]34CCCN3C[C@H](F)C4)nc2c(F)c1-c1ccc(F)c2sc(N)nc12 [Example E69, 4-(4-(3,8-diazabicyclo[3.2.1]octan-3-yl)-8-fluoro-2-(((2R,7aS)-2-fluorotetrahydro-1H-pyrrolizin-7a(5H)-yl)methoxy)-6-(prop-1-en-2-yl)quinazolin-7-yl)-7-fluorobenzo[d]thiazol-2-amine] | 0.72 | 216 | 72 | – | – |
| Nc1nc2c(-c3c(C(F)(F)F)cc4c(N5CC6CCC(C5)N6)nc(OC[C@@]56CCCN5C[C@H](F)C6)nc4c3F)c(F)cc(F)c2s1 [Example E84, 4-(4-(3,8-diazabicyclo[3.2.1]octan-3-yl)-8-fluoro-2-(((2R,7aS)-2-fluorotetrahydro-1H-pyrrolizin-7a(5H)-yl)methoxy)-6-(trifluoromethyl)quinazolin-7-yl)-5,7-difluorobenzo[d]thiazol-2-amine] | 0.36 | 28 | 2.4 | – | – |
| Cc1cc(N)nc(-c2c(F)cc3c(N4CC5CCC(C4)N5)nc(OC[C@@]45CCCN4C[C@H](F)C5)nc3c2F)c1C(F)(F)F [Example E79, 6-(4-(3,8-diazabicyclo[3.2.1]octan-3-yl)-6,8-difluoro-2-(((2R,7aS)-2-fluorotetrahydro-1H-pyrrolizin-7a(5H)-yl)methoxy)quinazolin-7-yl)-4-methyl-5-(trifluoromethyl) pyridin-2-amine] | 1.1 | 153 | 178 | – | – |
| C[C@@H](CN1CCC1)Oc1nc(N2CC3CCC(C2)N3)c2cc(Cl)c(-c3ccc(F)c4sc(N)nc34)c(F)c2n1 [Example E23, 4-(2-(((S)-1-(azetidin-1-yl)propan-2-yl)oxy)-4-(3,8-diazabicyclo[3.2.1]octan-3-yl)-6-chloro-8-fluoroquinazolin-7-yl)-7-fluorobenzo[d]thiazol-2-amine] | – | 5220 | – | 146 | 3.9 |
| C[C@@H](CN1CCCCC1)Oc1nc(N2CC3CC(C2)N3)c2cc(Cl)c(-c3ccc(F)c4sc(N)nc34)c(F)c2n1 [Example E12] | – | 2020 | – | 124 | 3.5 |
| C[C@@H](CN1CCC(F)CC1)Oc1nc(N2CC3CCC(C2)N3)c2cc(Cl)c(-c3ccc(F)c4sc(N)nc34)c(F)c2n1 [Example E25] | – | 860 | – | 88 | 2.2 |
| Nc1nc2c(-c3c(Cl)cc4c(N5CC6CCC(C5)N6)nc(OCC56CCCN5CCC6)nc4c3F)ccc(F)c2s1 [Example E7, 4-(4-(3,8-diazabicyclo[3.2.1]octan-3-yl)-6-chloro-8-fluoro-2-((tetrahydro-1H-pyrrolizin-7a(5H)-yl)methoxy)quinazolin-7-yl)-7-fluorobenzo[d]thiazol-2-amine] | – | 2640 | – | 11 | 4.7 |
| CN1C[C@H](F)C[C@H]1COc1nc(N2CC3CCC(C2)N3)c2cc(Cl)c(-c3ccc(F)c4sc(N)nc34)c(F)c2n1 [Example E15, 4-(4-(3,8-diazabicyclo[3.2.1]octan-3-yl)-6-chloro-8-fluoro-2-(((2S,4R)-4-fluoro-1-methylpyrrolidin-2-yl)methoxy)quinazolin-7-yl)-7-fluorobenzo[d]thiazol-2-amine] | – | 574 | – | 83 | 4.4 |
| C[C@@H](CN1CCC(C#N)CC1)Oc1nc(N2CC3CCC(C2)N3)c2cc(Cl)c(-c3ccc(F)c4sc(N)nc34)c(F)c2n1 [Example E26, 1-((2S)-2-((7-(2-amino-7-fluorobenzo[d]thiazol-4-yl)-4-(3,8-diazabicyclo[3.2.1]octan-3-yl)-6-chloro-8-fluoroquinazolin-2-yl)oxy)propyl)piperidine-4-carbonitrile] | – | 819 | – | 140 | 2.9 |
| CC(CN1CCNCC1)Oc1nc(N2CC3CCC(C2)N3)c2cc(Cl)c(-c3ccc(F)c4sc(N)nc34)c(F)c2n1 (stereo not drawn) [Example E13, 4-(4-(3,8-diazabicyclo[3.2.1]octan-3-yl)-6-chloro-8-fluoro-2-((1-(piperazin-1-yl)propan-2-yl)oxy)quinazolin-7-yl)-7-fluorobenzo[d]thiazol-2-amine] | – | > 10000 | – | 537 | 8.3 |
| C[C@@H](CN1CCS(=O)(=O)CC1)Oc1nc(N2CC3CCC(C2)N3)c2cc(Cl)c(-c3ccc(F)c4sc(N)nc34)c(F)c2n1 [Example E22, 4-((2S)-2-((7-(2-amino-7-fluorobenzo[d]thiazol-4-yl)-4-(3,8-diazabicyclo[3.2.1]octan-3-yl)-6-chloro-8-fluoroquinazolin-2-yl)oxy)propyl)thiomorpholine 1,1-dioxide] | – | 7700 | – | > 3330 | 27 |

Reference: patent US20240140957A1, “BRIDGED COMPOUNDS AS KRAS G12D INHIBITOR AND DEGRADER AND THE USE THEREOF” (BeiGene Switzerland GmbH, priority 2021, published 2024)
